From US20220002373A1, “SINGLE-CHAIN INSULIN ANALOGUES WITH POLY-ALANINE C-DOMAIN SUB-SEGMENTS” (CASE WESTERN RESERVE UNIVERSITY, priority 2018, published 2022)

System: Sprague-Dawley rats made diabetic with streptozotocin
Test: Pharmacodynamics after subcutaneous injection in a rat model of diabetes mellitus (blood-glucose concentration over time)
Assay type: in vivo
Conditions: dose equivalent in nanomoles to 15 μg insulin lispro per 300-gram rat, relative to insulin lispro, FIG. 6
Description: The dose was 15 μg of insulin lispro per 300-gram rat; doses of the SCIs were equivalent in units of nanomoles per 300-gram rat (i.e., micrograms corrected for respective molecular masses).

SCI-4: 57-residue single-chain insulin analogue, C domain EAAAAA, substitutions His^A8, Glu^A14, Asp^B28, Pro^B29; expressed in Pichia pastoris (FVNQHLCGSHLVEALYLVCGERGFFYTDPTEAAAAAGIVEQCCHSICSLEQLENYCN)
integrated potency (area over the curve): essentially identical to that of insulin lispro | offset of action / duration of action (tail of insulin action): essentially identical to that of insulin lispro | onset of action: essentially identical to that of insulin lispro
